From patent US7544675B2, “Chemical compounds with dual activity, processes for their preparation and pharmaceutical compositions” (UCB, S.A., priority 2002, dated 2009)

Columns and labels:
PDE IV = PDE IV enzymatic activity (SPA phosphodiesterase assay, cytosolic fraction from U937 cells); assay type: biochemical; settings: qualitative statement
Method: Cytosolic fraction from U937 cells pre-stimulated for 4 h at 37° C. with a mixture of rolipram 30 μM and salbutamol 1 μM (Torphy T. J., Zhou H. L., Cieslinski L. B., J. Pharmacol. Exp. Ther. (1992), 263 (3), 1195-1205).
Assays were performed in 100 μL of 50 mM Tris HCl buffer (pH 7.4) containing 5 mM MgCl2, 2 mM EGTA, 20 nM of [^3H]-cAMP (40-60 Ci/mmol), the cytosolic fraction of 50,000 U937 cells and the appropriate concentration of test compound (usually 10 μM) dissolved in DMSO (final assay concentration not exceeding 1%). After 30 min incubation at room temperature, 0.5 mg of SPA yttrium silicate beads are added to each sample. Radioactivity bound to the beads (5′-AMP) is determined by liquid scintillation. Non PDE IV activity and/or non specific binding of the labeled substrate to the SPA beads is defined as the residual radioactivity remaining in the presence of rolipram 32 μM (non PDE IV activity represents about 40% of total activity). PDE IV activity is determined by subtracting the non PDE TV activity from the total activity.

[1] = target: T1, human m3 muscarinic receptor (Homo sapiens, UniProt P20309); assay: Affinity for human muscarinic receptors ([3H]-NMS binding, CHO cell membranes); settings: qualitative statement
T1 construct: expressed in transfected cells; host or cells: CHO (Chinese Hamster Ovarian) cells, crude membrane fraction
T1 sequence (P20309 whole entry): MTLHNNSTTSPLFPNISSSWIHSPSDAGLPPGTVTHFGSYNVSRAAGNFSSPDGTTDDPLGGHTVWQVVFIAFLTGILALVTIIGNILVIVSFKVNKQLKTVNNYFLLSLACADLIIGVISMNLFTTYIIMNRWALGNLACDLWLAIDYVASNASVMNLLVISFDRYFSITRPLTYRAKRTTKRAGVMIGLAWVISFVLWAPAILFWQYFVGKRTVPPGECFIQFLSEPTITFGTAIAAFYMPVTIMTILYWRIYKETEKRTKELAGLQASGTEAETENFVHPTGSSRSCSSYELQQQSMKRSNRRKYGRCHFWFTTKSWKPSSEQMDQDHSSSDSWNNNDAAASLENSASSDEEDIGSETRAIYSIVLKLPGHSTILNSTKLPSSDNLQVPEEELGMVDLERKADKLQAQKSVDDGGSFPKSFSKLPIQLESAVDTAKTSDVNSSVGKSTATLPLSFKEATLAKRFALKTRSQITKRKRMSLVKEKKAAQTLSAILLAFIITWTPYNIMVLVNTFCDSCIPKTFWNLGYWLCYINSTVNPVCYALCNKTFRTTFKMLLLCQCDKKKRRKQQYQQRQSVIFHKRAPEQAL
Method: Chinese Hamster Ovarian cells (CHO) expressing the human recombinant m1, m2, m3, m4 and m5 receptors were cultured in Ham's F12 media supplemented with 100 IU/ml of penicillin, 100 μg/ml of streptomycin, 400 μg/ml of geneticin and 5% of fetal bovine serum. Cell cultures were maintained in a humidified incubator at 37° C. and 5% CO2.
Confluent CHO cells expressing human m1, m2, m3, m4 and m5 muscarinic receptors were harvested and resuspended in phosphate buffered saline without calcium and magnesium. The cell suspension was centrifuged at 1500×g for 3 min (4° C.). The cell pellet was homogenized in a 15 mM Tris-HCl (pH 7.5) buffer containing 2 mM MgCl2, 0.3 mM EDTA and 1 mM EGTA. The crude membrane fraction was collected by two consecutive centrifugation steps at 40,000×g for 25 min (4° C.). The final pellet was resuspended, at a protein concentration ranging from 2 to 6 mg/ml, in a 7.5 mM Tris-HCl (pH 7.5) buffer containing 12.5 mM MgCl2, 0.3 mM EDTA, 1 mM EGTA and 250 mM sucrose and stored in liquid nitrogen.
Binding assays were performed according to procedure described in: Buckley N. J., Bonner T. I., Buckley C. M., Brann M. R., Mol. Pharmacol. (1989), 35, 469-476, but with slight modifications.
Briefly, 25 to 50 μg of membrane proteins were incubated at room temperature in 1 ml of a 50 mM Tris-HCl (pH 7.4) buffer containing 2 mM of MgCl2, 0.1 nM of [^3H]-NMS (N-methylscopolamine, 85 Ci/mmol, from Apbiotech, UK) and increasing concentrations of test compound dissolved in DMSO (1% final concentration). Non specific binding was measured in the presence of 1 μM atropine. After 60 (m2) or 120 (m3) min. incubation, assays were stopped by rapid vacuum filtration of the samples through glass fiber filters (Filtermat A, Wallac, Belgium) presoaked in 0.3% polyethyleneimine for at least 2 h. Samples were further rinsed with 8 ml of ice-cold 50 mM Tris-HCl (pH 7.4) buffer. Radioactivity trapped onto the filter was counted in a Betaplate counter (Wallac). Competition binding curves were analyzed by non-linear regression with XLfit software (UDBS, UK).

## Cc1c(NC2CC2)nc(C2CC2C)nc1N1CCCCCC1 (racemic) [Compound 65, 6-(1-azepanyl)-N-cyclopropyl-5-methyl-2-(2-methylcyclopropyl)-4-pyrimidinamine]
PDE IV
  Dual high affinities: PDE IV part: high affinities
[1]
  Dual high affinities: m3 receptor part: high affinities

## Cc1c(NC2CC2)nc(C2CC2C)nc1N1CCC(C)CC1 (racemic) [Compound 98, N-cyclopropyl-5-methyl-2-(2-methylcyclopropyl)-6-(4-methyl-1-piperidinyl)-4-pyrimidinamine]
PDE IV
  Dual high affinities: PDE IV part: high affinities
[1]
  Dual high affinities: m3 receptor part: high affinities

## Cc1c(NC2CC2)nc(C2CC2)nc1N1CCCCC1C (racemic) [Compound 177, N,2-dicyclopropyl-5-methyl-6-(2-methyl-1-piperidinyl)-4-pyrimidinamine]
PDE IV
  Dual high affinities: PDE IV part: high affinities
[1]
  Dual high affinities: m3 receptor part: high affinities

## Cc1c(NC2CC2)nc(C2CC2C)nc1N1CCCCCC1 (single isomer, unassigned) [Compound 67, 6-(1-azepanyl)-N-cyclopropyl-5-methyl-2-(2-methylcyclopropyl)-4-pyrimidinamine]
PDE IV
  Dual high affinities: PDE IV part: high affinities
[1]
  Dual high affinities: m3 receptor part: high affinities

## CC1CC1c1nc(NC2CCCCC2)cc(NC2CC2)n1 (single isomer, unassigned) [Compound 144, N^4-cyclohexyl-N^6-cyclopropyl-2-(2-methylcyclopropyl)-4,6-pyrimidinediamine]
PDE IV
  Dual high affinities: PDE IV part: high affinities
[1]
  Dual high affinities: m3 receptor part: high affinities

## Cc1c(NC2CC2)nc(C2CCC2)nc1N1CCCCCC1 [Compound 55, 6-(1-azepanyl)-2-cyclobutyl-N-cyclopropyl-5-methyl-4-pyrimidinamine]
PDE IV
  Dual high affinities: PDE IV part: high affinities
[1]
  Dual high affinities: m3 receptor part: high affinities

## Cc1c(NC2CC2)nc(C2CC2)nc1N1CCCCCC1 [Compound 56, 6-(1-azepanyl)-N,2-dicyclopropyl-5-methyl-4-pyrimidinamine]
PDE IV
  Dual high affinities: PDE IV part: high affinities
[1]
  Dual high affinities: m3 receptor part: high affinities

## Clc1c(NC2CC2)nc(C2CC2)nc1N1CCCCCC1 [Compound 59, 6-(1-azepanyl)-5-chloro-N,2-dicyclopropyl-4-pyrimidinamine]
PDE IV
  Dual high affinities: PDE IV part: high affinities
[1]
  Dual high affinities: m3 receptor part: high affinities

## Fc1c(NC2CC2)nc(C2CC2)nc1N1CCCCCC1 [Compound 60, 6-(1-azepanyl)-N,2-dicyclopropyl-5-fluoro-4-pyrimidinamine]
PDE IV
  Dual high affinities: PDE IV part: high affinities
[1]
  Dual high affinities: m3 receptor part: high affinities

## Brc1c(NC2CC2)nc(C2CC2)nc1N1CCCCCC1 [Compound 61, 6-azepan-1-yl-5-bromo-N,2-dicyclopropyl-4-pyrimidinamine]
PDE IV
  Dual high affinities: PDE IV part: high affinities
[1]
  Dual high affinities: m3 receptor part: high affinities

## c1c(NC2CC2)nc(C2CC2)nc1N1CCCCCC1 [Compound 62, 6-(1-azepanyl)-N,2-dicyclopropyl-4-pyrimidinamine]
PDE IV
  Dual high affinities: PDE IV part: high affinities
[1]
  Dual high affinities: m3 receptor part: high affinities

## Nc1c(NC2CC2)nc(C2CC2)nc1N1CCCCCC1 [Compound 63, 6-(1-azepanyl)-N^4,2-dicyclopropyl-4,5-pyrimidinediamine]
PDE IV
  Dual high affinities: PDE IV part: high affinities
[1]
  Dual high affinities: m3 receptor part: high affinities

## Cc1c(NC2CC2)nc(C(C)C)nc1N1CCCCCC1 [Compound 64, 6-(1-azepanyl)-N-cyclopropyl-2-isopropyl-5-methyl-4-pyrimidinamine]
PDE IV
  Dual high affinities: PDE IV part: high affinities
[1]
  Dual high affinities: m3 receptor part: high affinities

## Cc1c(NC2CC2)nc(C2CC2)nc1N1CCCCCCC1 [Compound 72, 6-(1-azocanyl)-N,2-dicyclopropyl-5-methyl-4-pyrimidinamine]
PDE IV
  Dual high affinities: PDE IV part: high affinities
[1]
  Dual high affinities: m3 receptor part: high affinities

## Cc1c(NC2CC2)nc(C2CC2)nc1N1CCC(C(F)(F)F)CC1 [Compound 77, N,2-dicyclopropyl-5-methyl-6-[4-(trifluoromethyl)piperidin-1-yl]-4-pyrimidinamine]
PDE IV
  Dual high affinities: PDE IV part: high affinities
[1]
  Dual high affinities: m3 receptor part: high affinities

## Cc1c(NC2CC2)nc(C2CC2)nc1N1CCC(F)(F)CC1 [Compound 78, N,2-dicyclopropyl-6-(4,4-difluoro-1-piperidinyl)-5-methyl-4-pyrimidinamine]
PDE IV
  Dual high affinities: PDE IV part: high affinities
[1]
  Dual high affinities: m3 receptor part: high affinities

## Cc1c(NC2CC2)nc(C2CC2)nc1N1CCC(C)(C)CC1 [Compound 79, N,2-dicyclopropyl-6-(4,4-dimethyl-1-piperidinyl)-5-methyl-4-pyrimidinamine]
PDE IV
  Dual high affinities: PDE IV part: high affinities
[1]
  Dual high affinities: m3 receptor part: high affinities

## CCC1CCN(c2nc(C3CC3)nc(NC3CC3)c2C)CC1 [Compound 86, N,2-dicyclopropyl-6-(4-ethyl-1-piperidinyl)-5-methyl-4-pyrimidinamine]
PDE IV
  Dual high affinities: PDE IV part: high affinities
[1]
  Dual high affinities: m3 receptor part: high affinities

## CCc1c(NC2CC2)nc(C2CC2)nc1N1CCC(C)CC1 [Compound 94, N,2-dicyclopropyl-5-ethyl-6-(4-methyl-1-piperidinyl)-4-pyrimidinamine]
PDE IV
  Dual high affinities: PDE IV part: high affinities
[1]
  Dual high affinities: m3 receptor part: high affinities

## Cc1c(NC2CC2)nc(C2CC2)nc1N1CCC(C)CC1 [Compound 95, N,2-dicyclopropyl-5-methyl-6-(4-methyl-1-piperidinyl)-4-pyrimidinamine]
PDE IV
  Dual high affinities: PDE IV part: high affinities
[1]
  Dual high affinities: m3 receptor part: high affinities

## C=C1CCN(c2nc(C3CC3)nc(NC3CC3)c2C)CC1 [Compound 106, N,2-dicyclopropyl-5-methyl-6-(4-methylene-1-piperidinyl)-4-pyrimidinamine]
PDE IV
  Dual high affinities: PDE IV part: high affinities
[1]
  Dual high affinities: m3 receptor part: high affinities

## Cc1c(NC2CC2)nc(C2CC2)nc1N1CC=CCC1 [Compound 112, N,2-dicyclopropyl-6-(3,6-dihydro-1(2H)-pyridinyl)-5-methyl-4-pyrimidinamine]
PDE IV
  Dual high affinities: PDE IV part: high affinities
[1]
  Dual high affinities: m3 receptor part: high affinities

## Cc1c(NC2CC2)nc(C2CC2)nc1N1CC2CCC(C2)C1 [Compound 115, 6-(3-azabicyclo[3.2.1]oct-3-yl)-N,2-dicyclopropyl-5-methyl-4-pyrimidinamine]
PDE IV
  Dual high affinities: PDE IV part: high affinities
[1]
  Dual high affinities: m3 receptor part: high affinities

## CCc1c(NC2CC2)nc(C2CC2)nc1N1CCSCC1 [Compound 118, N,2-dicyclopropyl-5-ethyl-6-(4-thiomorpholinyl)-4-pyrimidinamine (1:1)]
PDE IV
  Dual high affinities: PDE IV part: high affinities
[1]
  Dual high affinities: m3 receptor part: high affinities

## Cc1c(NC2CC2)nc(C2CC2)nc1N1CCSCC1 [Compound 119, N,2-dicyclopropyl-5-methyl-6-(4-thiomorpholinyl)-4-pyrimidinamine]
PDE IV
  Dual high affinities: PDE IV part: high affinities
[1]
  Dual high affinities: m3 receptor part: high affinities
